According to the supplement of paper PMC10627819:

Tests used:
[1] = test system: S. aureus Newman; test: fitness (endpoint OD595 vs no drug) (fraction); higher = more growth
Outline: (§1)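 Growth medium was TSB, LB Lennox or CY, and plates were kept at 37 °C. Inoculation was at OD595 0.01 in 384-well plates, at 30 µl per well or 55 µl for S. pneumoniae. OD595 was monitored every 30 min for 14 h and background-subtracted using the first reading. Fitness is the optical density on entering stationary phase divided by the robust mean of no-drug controls, with values capped at 1.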

[2] = test system: B. subtilis 168; test: as above
Outline: as §1

[3] = test system: S. pneumoniae D39V; test: as above
Outline: as §1

[4] = test system: S. aureus Newman; test: Bliss interaction score (quartile over a dose matrix) (fitness difference); higher = more antagonism (negative = synergy)
Outline: (§2)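 At entry into stationary phase, OD595 was recorded and divided by the robust mean of the no-drug wells on that plate, with any value above 1 set to 1. This gives the fitness measure used throughout. Single-drug fitness was inferred from combination data, and the Bliss score, observed minus product-expected fitness, is shown as quartiles across technical, biological and donor/recipient replicates.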

[5] = test system: B. subtilis 168; test: as above
Outline: as §2

[6] = test system: S. pneumoniae D39V; test: as above
Outline: as §2

[7] = test system: S. aureus DSM 20231; test: as above
Outline: as §2
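Throughout, for Bliss interaction score (quartile over a dose matrix): first quartile when negative (synergy) and third quartile when positive (antagonism).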

COc1c(N2C[C@@H]3CCCN[C@@H]3C2)c(F)cc2c(=O)c(C(=O)O)cn(C3CC3)c12 [Moxifloxacin] + CN[C@@H]1[C@H](O[C@H]2[C@H](O[C@H]3[C@H](O)[C@@H](O)[C@H](N=C(N)N)[C@@H](O)[C@@H]3N=C(N)N)O[C@@H](C)[C@]2(O)C=O)O[C@@H](CO)[C@H](O)[C@H]1O [Streptomycin]
fitness
Settings | partner 1 µg/mL | partner 2 µg/mL | partner 4 µg/mL | partner 8 µg/mL
[1], first compound 0.0075 µg/mL | 0.834 | 0.733 | – | –
[1], first compound 0.015 µg/mL | – | 0.606 | – | –
[1], first compound 0.03 µg/mL | – | 0.201 | 0.0711 | –
[2], first compound 0.0312 µg/mL | – | 0.0439 | 0.0414 | 0.0382
[2], first compound 0.0625 µg/mL | – | 0.0428 | 0.0341 | 0.0226
[2], first compound 0.125 µg/mL | – | 0.041 | 0.0379 | 0.0381
[2], first compound 2 µg/mL | – | 0.0315 | 0.0296 | 0.0146
[2], first compound 4 µg/mL | – | 0.0231 | 0.0178 | 0.0188
[2], first compound 8 µg/mL | – | 0.013 | 0.0133 | 0.0206
[3], first compound 0.0037 µg/mL | – | – | 0.891 | 0.785
[3], first compound 0.005 µg/mL | – | 0.922 | 0.944 | 0.892
[3], first compound 0.0075 µg/mL | – | – | 0.904 | 0.837
[3], first compound 0.01 µg/mL | – | 0.94 | 0.958 | 0.925
[3], first compound 0.015 µg/mL | – | – | 0.882 | 0.82
[3], first compound 0.02 µg/mL | – | 0.881 | 0.9 | 0.861

fitness, [3], one replicate
Settings | first compound 0.0037 µg/mL | first compound 0.0075 µg/mL | first compound 0.015 µg/mL
partner 2 µg/mL | 0.903 | 0.908 | 0.919
partner 16 µg/mL | 0.699 | 0.743 | 0.685

Settings | Bliss interaction score
[4] | -0.031
[5] | 0.0188
[6] | 0.0604
[7] | 0.0517
